In ChEMBL document CHEMBL4507268 (2021):

Experiments:
[1] = biological target: Tyrosine-protein kinase ABL1 (Homo sapiens) (UniProt P00519); conditions: Compound concentration 1000.0 nM
[2] = biological target: Atypical kinase COQ8A, mitochondrial (Homo sapiens) (UniProt Q8NI60); conditions: Compound concentration 1000.0 nM
[3] = biological target: Mitogen-activated protein kinase kinase kinase 6 (Homo sapiens) (UniProt O95382); conditions: Compound concentration 1000.0 nM
[4] = biological target: Dual specificity protein kinase CLK1 (Homo sapiens) (UniProt P49759); conditions: Compound concentration 1000.0 nM
Dual specificity protein kinase CLK1 (Homo sapiens), sequence (P49759 whole entry, looked up): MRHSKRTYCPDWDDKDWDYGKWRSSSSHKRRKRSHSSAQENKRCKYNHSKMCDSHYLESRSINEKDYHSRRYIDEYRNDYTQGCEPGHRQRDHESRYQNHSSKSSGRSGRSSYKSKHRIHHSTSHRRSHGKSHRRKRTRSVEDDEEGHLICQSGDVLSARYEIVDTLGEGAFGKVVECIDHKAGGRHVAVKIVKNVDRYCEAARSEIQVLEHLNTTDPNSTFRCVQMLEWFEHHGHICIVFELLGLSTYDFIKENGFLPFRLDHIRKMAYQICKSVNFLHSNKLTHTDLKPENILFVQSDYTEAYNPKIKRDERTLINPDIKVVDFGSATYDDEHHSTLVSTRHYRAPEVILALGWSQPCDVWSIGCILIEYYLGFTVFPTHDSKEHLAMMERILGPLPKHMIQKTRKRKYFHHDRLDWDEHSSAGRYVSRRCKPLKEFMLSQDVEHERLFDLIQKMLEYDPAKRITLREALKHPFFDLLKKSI

[5] = biological target: Serine/threonine-protein kinase DCLK1 (Homo sapiens) (UniProt O15075); conditions: Compound concentration 1000.0 nM
Serine/threonine-protein kinase DCLK1 (Homo sapiens), sequence (O15075 whole entry): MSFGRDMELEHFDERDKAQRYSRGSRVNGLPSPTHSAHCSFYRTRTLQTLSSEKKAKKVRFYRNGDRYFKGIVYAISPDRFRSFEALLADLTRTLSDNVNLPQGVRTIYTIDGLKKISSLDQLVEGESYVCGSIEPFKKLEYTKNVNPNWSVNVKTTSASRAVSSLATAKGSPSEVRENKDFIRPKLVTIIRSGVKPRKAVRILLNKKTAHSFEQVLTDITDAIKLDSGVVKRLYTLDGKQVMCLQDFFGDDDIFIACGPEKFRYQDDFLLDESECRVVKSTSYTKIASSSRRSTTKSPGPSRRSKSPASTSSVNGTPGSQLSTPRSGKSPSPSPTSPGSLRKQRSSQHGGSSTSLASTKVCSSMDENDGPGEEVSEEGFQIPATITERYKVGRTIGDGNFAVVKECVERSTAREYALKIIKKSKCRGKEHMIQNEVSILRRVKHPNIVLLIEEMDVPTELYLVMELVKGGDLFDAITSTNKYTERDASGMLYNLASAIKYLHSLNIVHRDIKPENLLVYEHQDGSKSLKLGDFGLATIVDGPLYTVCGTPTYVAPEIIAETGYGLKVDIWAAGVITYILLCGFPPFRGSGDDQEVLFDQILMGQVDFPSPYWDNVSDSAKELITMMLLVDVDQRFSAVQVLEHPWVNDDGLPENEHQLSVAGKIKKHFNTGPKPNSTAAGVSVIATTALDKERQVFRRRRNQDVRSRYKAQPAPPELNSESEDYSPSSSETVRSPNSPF

[6] = biological target: T1, Serine/threonine-protein kinase DCLK2 (Homo sapiens) (UniProt Q8N568); conditions: Compound concentration 1000.0 nM
T1 sequence (whole entry): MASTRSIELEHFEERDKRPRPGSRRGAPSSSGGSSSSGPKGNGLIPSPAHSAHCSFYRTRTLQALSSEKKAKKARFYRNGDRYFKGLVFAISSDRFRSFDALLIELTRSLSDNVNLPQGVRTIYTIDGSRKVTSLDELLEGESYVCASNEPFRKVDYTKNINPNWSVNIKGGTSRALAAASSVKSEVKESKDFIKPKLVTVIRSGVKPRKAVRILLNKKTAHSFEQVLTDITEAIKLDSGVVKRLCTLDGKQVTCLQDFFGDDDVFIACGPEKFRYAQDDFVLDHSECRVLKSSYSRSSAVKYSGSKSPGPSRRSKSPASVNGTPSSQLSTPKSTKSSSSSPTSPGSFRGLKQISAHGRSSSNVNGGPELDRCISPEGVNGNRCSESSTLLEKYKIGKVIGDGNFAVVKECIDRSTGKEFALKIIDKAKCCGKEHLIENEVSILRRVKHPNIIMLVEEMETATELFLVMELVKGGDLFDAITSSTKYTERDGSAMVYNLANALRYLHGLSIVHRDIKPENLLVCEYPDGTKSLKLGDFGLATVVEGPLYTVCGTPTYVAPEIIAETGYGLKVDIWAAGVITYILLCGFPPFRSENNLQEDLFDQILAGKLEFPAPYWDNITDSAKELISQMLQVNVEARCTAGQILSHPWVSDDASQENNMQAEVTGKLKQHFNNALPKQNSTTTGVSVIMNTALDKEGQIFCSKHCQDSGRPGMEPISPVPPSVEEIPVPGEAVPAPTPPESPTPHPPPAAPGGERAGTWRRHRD

[7] = biological target: Fibroblast growth factor receptor 4 (Homo sapiens) (UniProt P22455); conditions: Compound concentration 1000.0 nM
[8] = system: Mast/stem cell growth factor receptor Kit (Homo sapiens), P10721 [D816V]; conditions: Compound concentration 1000.0 nM
Mast/stem cell growth factor receptor Kit (Homo sapiens), P10721 [D816V], sequence (P10721 whole entry D816V, the tested form may be a part): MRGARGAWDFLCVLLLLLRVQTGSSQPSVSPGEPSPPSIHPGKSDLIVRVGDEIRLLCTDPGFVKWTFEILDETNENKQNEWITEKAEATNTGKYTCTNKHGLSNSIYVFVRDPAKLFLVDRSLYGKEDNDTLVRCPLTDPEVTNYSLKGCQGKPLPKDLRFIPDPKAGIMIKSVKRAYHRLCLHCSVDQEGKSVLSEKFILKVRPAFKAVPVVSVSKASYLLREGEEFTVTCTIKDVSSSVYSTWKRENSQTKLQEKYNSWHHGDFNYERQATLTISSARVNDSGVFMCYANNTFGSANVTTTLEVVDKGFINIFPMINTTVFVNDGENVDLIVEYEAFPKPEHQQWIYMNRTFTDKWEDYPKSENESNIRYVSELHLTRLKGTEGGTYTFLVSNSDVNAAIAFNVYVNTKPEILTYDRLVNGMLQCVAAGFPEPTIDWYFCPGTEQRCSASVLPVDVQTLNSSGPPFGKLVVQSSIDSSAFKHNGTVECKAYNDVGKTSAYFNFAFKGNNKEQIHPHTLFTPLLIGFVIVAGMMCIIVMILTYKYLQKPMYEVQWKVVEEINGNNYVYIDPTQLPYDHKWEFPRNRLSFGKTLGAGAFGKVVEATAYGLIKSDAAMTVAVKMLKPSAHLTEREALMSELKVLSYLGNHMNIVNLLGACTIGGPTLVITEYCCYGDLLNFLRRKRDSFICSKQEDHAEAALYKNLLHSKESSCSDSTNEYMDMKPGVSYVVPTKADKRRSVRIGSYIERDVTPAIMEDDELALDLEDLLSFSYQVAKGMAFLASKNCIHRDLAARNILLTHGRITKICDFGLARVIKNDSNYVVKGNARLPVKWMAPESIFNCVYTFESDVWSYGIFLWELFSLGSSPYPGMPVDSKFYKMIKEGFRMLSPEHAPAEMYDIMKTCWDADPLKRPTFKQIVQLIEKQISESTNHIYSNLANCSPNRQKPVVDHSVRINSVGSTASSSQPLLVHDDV

[9] = biological target: LIM domain kinase 2 (Homo sapiens) (UniProt P53671); conditions: Compound concentration 1000.0 nM
[10] = biological target: Serine/threonine-protein kinase pim-2 (Homo sapiens) (UniProt Q9P1W9); conditions: Compound concentration 1000.0 nM
[11] = biological target: Serine/threonine-protein kinase PknB (Mycobacterium tuberculosis) (UniProt P9WI81); conditions: Compound concentration 1000.0 nM
[12] = biological target: Rho-associated protein kinase 2 (Homo sapiens) (UniProt O75116); conditions: Compound concentration 1000.0 nM
[13] = biological target: T2, TGF-beta receptor type-1 (Homo sapiens) (UniProt P36897); conditions: Compound concentration 1000.0 nM
T2 sequence (whole entry): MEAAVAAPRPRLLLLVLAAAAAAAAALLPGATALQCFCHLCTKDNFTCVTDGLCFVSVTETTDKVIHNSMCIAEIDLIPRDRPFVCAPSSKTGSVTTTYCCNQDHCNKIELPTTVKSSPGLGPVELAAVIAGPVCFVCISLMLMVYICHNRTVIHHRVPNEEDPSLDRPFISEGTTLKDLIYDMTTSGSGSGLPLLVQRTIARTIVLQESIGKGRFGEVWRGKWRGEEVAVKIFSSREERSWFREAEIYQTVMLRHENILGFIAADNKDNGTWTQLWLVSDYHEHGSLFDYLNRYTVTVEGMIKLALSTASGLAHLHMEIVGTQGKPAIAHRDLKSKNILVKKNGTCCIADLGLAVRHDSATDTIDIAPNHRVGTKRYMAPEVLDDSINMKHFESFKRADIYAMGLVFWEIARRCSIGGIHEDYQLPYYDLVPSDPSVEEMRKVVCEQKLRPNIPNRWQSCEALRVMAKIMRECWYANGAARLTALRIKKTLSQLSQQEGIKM

[14] = biological target: 5-hydroxytryptamine receptor 2A (Homo sapiens) (UniProt P28223); conditions: Compound concentration 10.0 uM
5-hydroxytryptamine receptor 2A (Homo sapiens), sequence (P28223 whole entry): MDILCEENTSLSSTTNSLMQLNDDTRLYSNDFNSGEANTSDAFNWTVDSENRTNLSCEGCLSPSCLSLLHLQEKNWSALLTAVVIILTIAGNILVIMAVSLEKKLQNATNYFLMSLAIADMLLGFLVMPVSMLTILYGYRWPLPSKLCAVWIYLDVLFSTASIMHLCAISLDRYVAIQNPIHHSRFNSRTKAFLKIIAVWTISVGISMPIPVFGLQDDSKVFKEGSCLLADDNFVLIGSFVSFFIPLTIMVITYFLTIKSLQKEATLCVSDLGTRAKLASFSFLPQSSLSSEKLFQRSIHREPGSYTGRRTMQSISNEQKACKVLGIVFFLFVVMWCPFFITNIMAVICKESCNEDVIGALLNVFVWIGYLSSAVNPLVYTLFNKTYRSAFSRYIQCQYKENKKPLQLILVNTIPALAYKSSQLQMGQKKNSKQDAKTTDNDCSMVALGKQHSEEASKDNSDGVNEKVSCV

[15] = biological target: Muscarinic acetylcholine receptor M2 (Homo sapiens) (UniProt P08172); conditions: Compound concentration 10.0 uM

Tyrosine-protein kinase ABL1 (Homo sapiens), sequence (P00519 whole entry): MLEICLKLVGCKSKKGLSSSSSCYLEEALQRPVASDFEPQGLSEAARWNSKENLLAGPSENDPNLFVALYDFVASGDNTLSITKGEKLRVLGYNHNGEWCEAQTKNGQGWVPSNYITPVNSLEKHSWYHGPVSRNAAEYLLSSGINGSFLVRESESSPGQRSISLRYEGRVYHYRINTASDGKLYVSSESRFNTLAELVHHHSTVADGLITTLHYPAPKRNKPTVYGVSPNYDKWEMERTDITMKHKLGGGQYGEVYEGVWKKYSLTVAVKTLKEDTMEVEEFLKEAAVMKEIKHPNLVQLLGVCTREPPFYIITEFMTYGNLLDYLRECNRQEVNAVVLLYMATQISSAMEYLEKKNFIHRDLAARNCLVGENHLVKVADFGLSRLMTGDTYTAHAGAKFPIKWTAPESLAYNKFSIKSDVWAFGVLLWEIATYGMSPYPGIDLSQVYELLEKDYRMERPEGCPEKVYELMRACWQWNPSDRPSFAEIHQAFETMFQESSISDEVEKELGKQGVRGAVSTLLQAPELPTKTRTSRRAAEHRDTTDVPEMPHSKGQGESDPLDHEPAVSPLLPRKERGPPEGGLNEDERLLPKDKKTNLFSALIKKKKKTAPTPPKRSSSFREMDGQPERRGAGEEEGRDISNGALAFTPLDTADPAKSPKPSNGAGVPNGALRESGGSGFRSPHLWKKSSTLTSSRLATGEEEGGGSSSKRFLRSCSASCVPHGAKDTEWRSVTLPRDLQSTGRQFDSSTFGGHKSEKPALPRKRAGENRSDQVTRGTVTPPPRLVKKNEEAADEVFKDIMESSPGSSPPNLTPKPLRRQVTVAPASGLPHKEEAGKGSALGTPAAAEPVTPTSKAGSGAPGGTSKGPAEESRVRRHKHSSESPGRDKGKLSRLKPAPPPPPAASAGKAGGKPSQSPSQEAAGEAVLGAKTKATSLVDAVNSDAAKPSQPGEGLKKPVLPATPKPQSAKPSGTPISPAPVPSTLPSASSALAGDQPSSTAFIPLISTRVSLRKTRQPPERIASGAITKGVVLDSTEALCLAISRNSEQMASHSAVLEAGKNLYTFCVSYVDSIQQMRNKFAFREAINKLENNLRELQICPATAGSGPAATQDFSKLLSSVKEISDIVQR
Mitogen-activated protein kinase kinase kinase 6 (Homo sapiens), sequence (O95382 whole entry): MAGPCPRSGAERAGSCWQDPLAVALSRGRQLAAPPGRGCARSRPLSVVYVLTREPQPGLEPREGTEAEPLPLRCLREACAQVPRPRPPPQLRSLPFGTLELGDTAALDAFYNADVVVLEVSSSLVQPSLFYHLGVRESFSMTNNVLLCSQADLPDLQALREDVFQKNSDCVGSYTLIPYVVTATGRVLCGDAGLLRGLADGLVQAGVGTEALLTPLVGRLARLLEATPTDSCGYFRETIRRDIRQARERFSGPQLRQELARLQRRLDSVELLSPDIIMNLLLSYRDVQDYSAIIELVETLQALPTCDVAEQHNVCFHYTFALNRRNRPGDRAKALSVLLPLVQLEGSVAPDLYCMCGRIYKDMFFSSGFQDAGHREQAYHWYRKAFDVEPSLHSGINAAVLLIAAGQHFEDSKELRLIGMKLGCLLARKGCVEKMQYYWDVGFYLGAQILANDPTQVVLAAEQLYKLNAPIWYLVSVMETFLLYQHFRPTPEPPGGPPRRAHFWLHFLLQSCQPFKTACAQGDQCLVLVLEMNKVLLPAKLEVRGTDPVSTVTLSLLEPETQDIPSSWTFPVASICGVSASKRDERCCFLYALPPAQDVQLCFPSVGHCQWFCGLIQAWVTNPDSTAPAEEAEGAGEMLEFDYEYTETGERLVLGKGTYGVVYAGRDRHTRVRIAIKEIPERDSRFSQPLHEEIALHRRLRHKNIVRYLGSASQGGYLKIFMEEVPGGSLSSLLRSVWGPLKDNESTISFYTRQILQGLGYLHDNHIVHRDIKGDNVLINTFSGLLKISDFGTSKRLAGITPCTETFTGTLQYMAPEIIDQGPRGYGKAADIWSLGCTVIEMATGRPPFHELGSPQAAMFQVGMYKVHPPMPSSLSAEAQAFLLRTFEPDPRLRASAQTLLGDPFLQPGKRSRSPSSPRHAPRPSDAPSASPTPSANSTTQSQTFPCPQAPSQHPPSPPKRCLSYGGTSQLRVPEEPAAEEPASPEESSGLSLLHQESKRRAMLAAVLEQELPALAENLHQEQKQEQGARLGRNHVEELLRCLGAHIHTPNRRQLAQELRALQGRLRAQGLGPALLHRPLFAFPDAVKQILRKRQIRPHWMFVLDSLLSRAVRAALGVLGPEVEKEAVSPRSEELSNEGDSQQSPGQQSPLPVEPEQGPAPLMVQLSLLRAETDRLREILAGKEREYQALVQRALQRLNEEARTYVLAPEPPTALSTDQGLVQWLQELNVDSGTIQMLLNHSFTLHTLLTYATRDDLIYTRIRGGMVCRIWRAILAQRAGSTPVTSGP

Cc1nc(C2CCN(C(=O)c3ccc(OC(F)(F)F)cc3N)CC2)c2ncc(N3CCN(C)CC3)cc2n1 [BAY-693]
inactive: residual activity [1] 92% | residual activity [2] 100% | residual activity [3] 100% | residual activity [4] 100% | residual activity [5] 85% | residual activity [6] 100% | residual activity [7] 100% | residual activity [8] 100% | residual activity [9] 95% | residual activity [10] 100% | residual activity [11] 100% | residual activity [12] 91% | residual activity [13] 80% | inhibition [14] 4.68% | inhibition [15] -1%

CN1CCN(c2cnc3c(C4CCN(C(=O)c5ccc(OC(F)(F)F)cc5N)CC4)ncnc3c2)CC1 [BAY-885]
inactive: residual activity [1] 91% | residual activity [2] 100% | residual activity [3] 100% | residual activity [4] 100% | residual activity [5] 85% | residual activity [6] 100% | residual activity [7] 100% | residual activity [8] 100% | residual activity [9] 100% | residual activity [10] 100% | residual activity [11] 97% | residual activity [12] 100% | residual activity [13] 90% | inhibition [14] 4.33% | inhibition [15] -0.56%
